Results reported in patent publication US12310975B2, “Modulators of BCL6 proteolysis and associated methods of use” (Arvinas Operations, Inc., priority 2019, dated 2025).

Target: BCL6 (Homo sapiens (Human), UniProt P41182)
Experiment: Immunofluorescence high content imaging of BCL6 degradation in T47D cells
Format: cell-based
Details: T47D cells
How it was run: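 T47D cells were treated for 3 days at 37 °C with 11-point 3-fold dilutions of bifunctional degrader (final top 0.1 or 1 μM). BCL6 was detected by immunofluorescence after PFA fixation, with Hoechst and cell mask counterstains, and imaged at 10×, 4 fields/well.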

| SMILES | Dmax [%] | IC50 [nM] |
| --- | --- | --- |
| CCN(C1CCN(c2ccc3c(c2)C(=O)N(C2CCC(=O)NC2=O)C3=O)CC1)C1CCN(c2ncc(Cl)c(Nc3ccc4c(c3)cc(OCC(=O)NC)c(=O)n4C)n2)CC1 (centres unmarked) [compound 326, 2-{[6-({5-chloro-2-[4-({1-[2-(2,6-dioxopiperidin-3-yl)-1,3-dioxo-2,3-dihydro-1H-isoindol-5-yl]piperidin-4-yl}(ethyl)amino)piperidin-1-yl]pyrimidin-4-yl}amino)-1-methyl-2-oxo-1,2-dihydroquinolin-3-yl]oxy}-N-methylacetamide] | 50 to 70 | 10 to 50 |
| CCCN(C1CCN(c2ccc3c(c2)C(=O)N(C2CCC(=O)NC2=O)C3=O)CC1)C1CCN(c2ncc(Cl)c(Nc3ccc4c(c3)cc(OCC(=O)NC)c(=O)n4C)n2)CC1 (centres unmarked) [compound 327, 2-{[6-({5-chloro-2-[4-({1-[2-(2,6-dioxopiperidin-3-yl)-1,3-dioxo-2,3-dihydro-1H-isoindol-5-yl]piperidin-4-yl}(propyl)amino)piperidin-1-yl]pyrimidin-4-yl}amino)-1-methyl-2-oxo-1,2-dihydroquinolin-3-yl]oxy}-N-methylacetamide] | 50 to 70 | 10 to 50 |
| CNC(=O)COc1cc2cc(Nc3nc(N4CCC[C@H](COc5cccc6c5C(=O)N(C5CCC(=O)NC5=O)C6=O)C4)ncc3Cl)ccc2n(C2CC2)c1=O (stereo partly drawn) [compound 336, 2-{[6-({5-chloro-2-[(3S)-3-({[2-(2,6-dioxopiperidin-3-yl)-1,3-dioxo-2,3-dihydro-1H-isoindol-4-yl]oxy}methyl)piperidin-1-yl]pyrimidin-4-yl}amino)-1-cyclopropyl-2-oxo-1,2-dihydroquinolin-3-yl]oxy}-N-methylacetamide] | 50 to 70 | 10 to 50 |
| CCC(C1CCN(c2ccc3c(c2)C(=O)N(C2CCC(=O)NC2=O)C3=O)CC1)N1CCN(c2ncc(Cl)c(Nc3ccc4c(c3)cc(OCC(=O)NC)c(=O)n4C)n2)CC1 (centres unmarked) [compound 337, 2-{[6-({5-chloro-2-[4-(1-{1-[2-(2,6-dioxopiperidin-3-yl)-1,3-dioxo-2,3-dihydro-1H-isoindol-5-yl]piperidin-4-yl}propyl)piperazin-1-yl]pyrimidin-4-yl}amino)-1-methyl-2-oxo-1,2-dihydroquinolin-3-yl]oxy}-N-methylacetamide] | < 50 |  |
| CCCC(C1CCN(c2ccc3c(c2)C(=O)N(C2CCC(=O)NC2=O)C3=O)CC1)N1CCN(c2ncc(Cl)c(Nc3ccc4c(c3)cc(OCC(=O)NC)c(=O)n4C)n2)CC1 (centres unmarked) [compound 338, 2-{[6-({5-chloro-2-[4-(1-{1-[2-(2,6-dioxopiperidin-3-yl)-1,3-dioxo-2,3-dihydro-1H-isoindol-5-yl]piperidin-4-yl}butyl)piperazin-1-yl]pyrimidin-4-yl}amino)-1-methyl-2-oxo-1,2-dihydroquinolin-3-yl]oxy}-N-methylacetamide] | < 50 | < 10 |
| CNC(=O)COc1cc2cc(Nc3nc(N4CCN(CC5(F)CCN(c6ccc7c(c6)C(=O)N(C6CCC(=O)NC6=O)C7=O)CC5)CC4)ncc3Cl)ccc2n(C)c1=O (centres unmarked) [compound 339, 2-{[6-({5-chloro-2-[4-({1-[2-(2,6-dioxopiperidin-3-yl)-1,3-dioxo-2,3-dihydro-1H-isoindol-5-yl]-4-fluoropiperidin-4-yl}methyl)piperazin-1-yl]pyrimidin-4-yl}amino)-1-methyl-2-oxo-1,2-dihydroquinolin-3-yl]oxy}-N-methylacetamide] | 50 to 70 | < 10 |
| CNC(=O)COc1cc2cc(Nc3nc(N4CCC(F)(CN5CCN(c6ccc7c(c6)C(=O)N(C6CCC(=O)NC6=O)C7=O)CC5)CC4)ncc3Cl)ccc2n(C)c1=O (centres unmarked) [compound 340, 2-{[6-({5-chloro-2-[4-({4-[2-(2,6-dioxopiperidin-3-yl)-1,3-dioxo-2,3-dihydro-1H-isoindol-5-yl]piperazin-1-yl}methyl)-4-fluoropiperidin-1-yl]pyrimidin-4-yl}amino)-1-methyl-2-oxo-1,2-dihydroquinolin-3-yl]oxy}-N-methylacetamide] | 50 to 70 | < 10 |
| CNC(=O)COc1cc2cc(Nc3nc(N4CCN(CC5(F)CCN(c6cccc7c6C(=O)N(C6CCC(=O)NC6=O)C7=O)CC5)CC4)ncc3Cl)ccc2n(C)c1=O (centres unmarked) [compound 341, 2-{[6-({5-chloro-2-[4-({1-[2-(2,6-dioxopiperidin-3-yl)-1,3-dioxo-2,3-dihydro-1H-isoindol-4-yl]-4-fluoropiperidin-4-yl}methyl)piperazin-1-yl]pyrimidin-4-yl}amino)-1-methyl-2-oxo-1,2-dihydroquinolin-3-yl]oxy}-N-methylacetamide] | ≥ 70 | < 10 |
| CNC(=O)COc1cc2cc(Nc3nc(N4CCC(F)(CN5CCN(c6cccc7c6C(=O)N(C6CCC(=O)NC6=O)C7=O)CC5)CC4)ncc3Cl)ccc2n(C)c1=O (centres unmarked) [compound 342, 2-{[6-({5-chloro-2-[4-({4-[2-(2,6-dioxopiperidin-3-yl)-1,3-dioxo-2,3-dihydro-1H-isoindol-4-yl]piperazin-1-yl}methyl)-4-fluoropiperidin-1-yl]pyrimidin-4-yl}amino)-1-methyl-2-oxo-1,2-dihydroquinolin-3-yl]oxy}-N-methylacetamide] | 50 to 70 | < 10 |
| CNC(=O)COc1cc2cc(Nc3nc(N4CCC[C@H](COc5cccc6c5C(=O)N(C5CCC(=O)NC5=O)C6=O)C4)ncc3Cl)ccc2n(C2CCCCC2)c1=O (stereo partly drawn) [compound 343, 2-{[6-({5-chloro-2-[(3S)-3-({[2-(2,6-dioxopiperidin-3-yl)-1,3-dioxo-2,3-dihydro-1H-isoindol-4-yl]oxy}methyl)piperidin-1-yl]pyrimidin-4-yl}amino)-1-cyclohexyl-2-oxo-1,2-dihydroquinolin-3-yl]oxy}-N-methylacetamide] | 50 to 70 | < 10 |

Second part, the molecule after the results:

| Dmax [%] | IC50 [nM] | SMILES |
| --- | --- | --- |
| 50 to 70 | < 10 | CCn1c(=O)c(OCC(=O)NC)cc2cc(Nc3nc(N4CCC(OC5CN(C6CN(c7ccc8c(c7)C(=O)N(C7CCC(=O)NC7=O)C8=O)C6)C5)CC4)ncc3Cl)ccc21 (centres unmarked) [compound 328, 2-{[6-({5-chloro-2-[4-({1′-[2-(2,6-dioxopiperidin-3-yl)-1,3-dioxo-2,3-dihydro-1H-isoindol-5-yl]-[1,3′-biazetidin]-3-yl}oxy)piperidin-1-yl]pyrimidin-4-yl}amino)-1-ethyl-2-oxo-1,2-dihydroquinolin-3-yl]oxy}-N-methylacetamide] |
| < 50 | < 10 | CCn1c(=O)c(OCC(=O)NC)cc2cc(Nc3nc(N4CCC(OCC5CCN(c6ccc7c(c6)C(=O)N(C6CCC(=O)NC6=O)C7=O)CC5)CC4)ncc3Cl)ccc21 (centres unmarked) [compound 329, 2-{[6-({5-chloro-2-[4-({1-[2-(2,6-dioxopiperidin-3-yl)-1,3-dioxo-2,3-dihydro-1H-isoindol-5-yl]piperidin-4-yl}methoxy)piperidin-1-yl]pyrimidin-4-yl}amino)-1-ethyl-2-oxo-1,2-dihydroquinolin-3-yl]oxy}-N-methylacetamide] |
| 50 to 70 | < 10 | CCn1c(=O)c(OCC(=O)NC)cc2cc(Nc3nc(N4CCC(OCC5CCN(c6cccc7c6C(=O)N(C6CCC(=O)NC6=O)C7=O)CC5)CC4)ncc3Cl)ccc21 (centres unmarked) [compound 330, 2-{[6-({5-chloro-2-[4-({1-[2-(2,6-dioxopiperidin-3-yl)-1,3-dioxo-2,3-dihydro-1H-isoindol-4-yl]piperidin-4-yl}methoxy)piperidin-1-yl]pyrimidin-4-yl}amino)-1-ethyl-2-oxo-1,2-dihydroquinolin-3-yl]oxy}-N-methylacetamide] |
| < 50 | < 10 | CCn1c(=O)c(OCC(=O)NC)cc2cc(Nc3nc(N4CCC(COC5CCN(c6ccc7c(c6)C(=O)N(C6CCC(=O)NC6=O)C7=O)CC5)CC4)ncc3Cl)ccc21 (centres unmarked) [compound 331, 2-({6-[(5-chloro-2-{4-[({1-[2-(2,6-dioxopiperidin-3-yl)-1,3-dioxo-2,3-dihydro-1H-isoindol-5-yl]piperidin-4-yl}oxy)methyl]piperidin-1-yl}pyrimidin-4-yl)amino]-1-ethyl-2-oxo-1,2-dihydroquinolin-3-yl}oxy)-N-methylacetamide] |
| 50 to 70 | < 10 | CCn1c(=O)c(OCC(=O)NC)cc2cc(Nc3nc(N4CCC(COC5CCN(c6cccc7c6C(=O)N(C6CCC(=O)NC6=O)C7=O)CC5)CC4)ncc3Cl)ccc21 (centres unmarked) [compound 332, 2-({6-[(5-chloro-2-{4-[({1-[2-(2,6-dioxopiperidin-3-yl)-1,3-dioxo-2,3-dihydro-1H-isoindol-4-yl]piperidin-4-yl}oxy)methyl]piperidin-1-yl}pyrimidin-4-yl)amino]-1-ethyl-2-oxo-1,2-dihydroquinolin-3-yl}oxy)-N-methylacetamide] |
| 50 to 70 | < 10 | CNC(=O)COc1cc2cc(Nc3nc(N4CCN(CC5CCN(c6ccc7c(c6)C(=O)N(C6CCC(=O)NC6=O)C7=O)CC5)CC4)ncc3Cl)ccc2n(CCC2CC2)c1=O (centres unmarked) [compound 333, 2-{[6-({5-chloro-2-[4-({1-[2-(2,6-dioxopiperidin-3-yl)-1,3-dioxo-2,3-dihydro-1H-isoindol-5-yl]piperidin-4-yl}methyl)piperazin-1-yl]pyrimidin-4-yl}amino)-1-(2-cyclopropylethyl)-2-oxo-1,2-dihydroquinolin-3-yl]oxy}-N-methylacetamide] |
| ≥ 70 | < 10 | CNC(=O)COc1cc2cc(Nc3nc(N4CCC[C@H](COc5cccc6c5C(=O)N(C5CCC(=O)NC5=O)C6=O)C4)ncc3Cl)ccc2n(CCC2CC2)c1=O (stereo partly drawn) [compound 334, 2-{[6-({5-chloro-2-[(3S)-3-({[2-(2,6-dioxopiperidin-3-yl)-1,3-dioxo-2,3-dihydro-1H-isoindol-4-yl]oxy}methyl)piperidin-1-yl]pyrimidin-4-yl}amino)-1-(2-cyclopropylethyl)-2-oxo-1,2-dihydroquinolin-3-yl]oxy}-N-methylacetamide] |
| 50 to 70 | < 10 | CNC(=O)COc1cc2cc(Nc3nc(N4CCN(C(C)C5CCN(c6ccc7c(c6)C(=O)N(C6CCC(=O)NC6=O)C7=O)CC5)CC4)ncc3Cl)ccc2n(C)c1=O (centres unmarked) [compound 335, 2-{[6-({5-chloro-2-[4-(1-{1-[2-(2,6-dioxopiperidin-3-yl)-1,3-dioxo-2,3-dihydro-1H-isoindol-5-yl]piperidin-4-yl}ethyl)piperazin-1-yl]pyrimidin-4-yl}amino)-1-methyl-2-oxo-1,2-dihydroquinolin-3-yl]oxy}-N-methylacetamide] |
